{
  "source": "patent US5545517A",
  "about": "“Selective metal ion detection using a photoluminescent indicator binding to a macromolecule-metal ion complex” (The United States of America as represented by the …, priority 1994, dated 1996)",
  "key": {"[1]": {"biological_target": "T1, carbonic anhydrase from bovine erythrocytes (Bos taurus, UniProt P00921)", "T1 construct": "purchased Sigma C-7500; host or cells: bovine erythrocytes", "T1 sequence (P00921 2-260 limits assumed)": "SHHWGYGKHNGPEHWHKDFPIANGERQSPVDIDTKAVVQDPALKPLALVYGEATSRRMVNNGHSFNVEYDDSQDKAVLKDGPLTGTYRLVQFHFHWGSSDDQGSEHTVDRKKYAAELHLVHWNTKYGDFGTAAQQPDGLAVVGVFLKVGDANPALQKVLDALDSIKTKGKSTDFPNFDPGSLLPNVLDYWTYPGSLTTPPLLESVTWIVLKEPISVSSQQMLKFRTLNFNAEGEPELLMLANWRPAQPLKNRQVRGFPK", "experiment": "binding of dansylamide to the zinc-containing carbonic anhydrase active site (fluorescence titration)", "conditions": "binding site when zinc is present there", "protocol": "N,N-dimethyl-1-aminonaphthalene-8-sulfonamide (dansylamide) was from Aldrich, HEPES (Ultrapure grade) was from Baker, and other buffer salts were reagent grade or better. […] Following passage through the chelating resin, solutions were stored in clean polyethylene containers and pipetted using plastic pipets or metal-free pipet tips; fluorescence was measured in cuvettes made of synthetic fused silica. Carbonic anhydrase from bovine erythrocytes (Sigma C-7500) was stripped of its Zn atom by prolonged dialysis at 4 C. in 50 mM sodium acetate pH 5.4 buffer containing approximately 5 mM 2,6-dipicolinic acid (Aldrich). […]\nFluorescence emission spectra and emission intensities in cuvettes were measured on a modified ISS K2 fluorometer 60 (Champaign, Ill.) using a Liconix 4114NB laser 36 emitting approximately 5 mW multimode at 326n m for excitation. […] For some measurements through the fiber the off-axis paraboloid, objective lens, and fiber holder were mounted in the ISS fluorometer in place of the cuvette holder, as described elsewhere (Thompson, R. B., Lakowicz, J. R., Anal. Chem 65 853-57 (1993)); in these experiments the chopper and lock-in were not used and the DC output of the Hamamatsu R928 photodetector was directly quantitated on the instrument's digital voltmeter after amplification. […]"}, "[2]": {"experiment": "storage stability in solution", "assay_type": "physicochemical", "conditions": "dilute solution, under these conditions (4° C.)"}, "carbonic anhydrase": {"tested_on": "carbonic anhydrase", "conditions": "observed by Chen titrating the enzyme with dansylamide; cited from earlier work"}},
  "data": [
    {"smiles": "CN(C)c1cccc2c(S(N)(=O)=O)cccc12", "note": "[dansylamide]", "values": [
      {"measurement": "Kd", "setting": "[1]", "result": 240, "unit": "nM"},
      {"measurement": "stability", "setting": "[2]", "result": "not stable for more than a week"},
      {"measurement": "fluorescence enhancement", "setting": "carbonic anhydrase", "result": 15, "unit": "fold"}
    ]}
  ]
}
